Source: US8735417B2, “Aminopyrimidines as Syk inhibitors” (Merck Sharp & Dohme Corp., priority 2009, dated 2014)
pIC50: −log10 of the molar value.

The compounds below were run against T1, recombinant human GST-SYK (Homo sapiens, UniProt P43405) (assay: Homogeneous Time-Resolved Fluorescence (HTRF) assay for the recombinant human SYK enzyme). Details: recombinant human GST-SYK 5 pM, ATP 25 μM, 10-dose titration; read-out: rhSYK Activity (IC50).
T1 construct: purchased Carna Biosciences 08-176
Format: biochemical
Protocol: Homogeneous Time-Resolved Fluorescence (HTRF) Assay for the Recombinant Human SYK Enzyme:
A recombinant GST-hSYK fusion protein was used to measure potency of compounds to inhibit human SYK activity. The recombinant human GST-SYK (Carna Biosciences #08-176) (5 pM final concentration) was incubated with various concentrations of the inhibitor diluted in DMSO (0.1% final concentration) for 10 minutes at room temperature in 15 mM Tris-HCl (pH 7.5), 0.01% tween 20, 2 mM DTT in 384 well plate format. To initiate the reaction the biotinylated substrate peptide (250 nM final concentration) that contains the phosphorylation site for SYK was added with magnesium (5 mM final concentration) and ATP (25 μM final concentration). Final volume of the reaction was 10 μL. Phosphorylation of the peptide was allowed to proceed for 45′ at room temperature. To quench the reaction and detect the phosphorylated product, 2 nM of a Europium-atiti-phosphotyrosine antibody (Perkin Elmer #AD0161) and 70 nM SA-APC (Perkin-Elmer #CR130-100) were added together in 15 mM Tris pH 7.5, 40 mM EDTA, 0.01% tween 20. Final volume of the quenching solution was 10 μL. The resulting HTRF signal was measured after 30 minutes on a EnVision (Perkin-Elmer) reader using a time-resolved fluorescence protocol.

Structure (SMILES) | pIC50
Cc1cc(Nc2nccc(C(F)(F)F)n2)cc(-c2cnc(NCCc3cccs3)s2)c1 [Example 108] | 6.00 to 7.00
OCC1CCCN(c2ncc(-c3cccc(Nc4nccc(C(F)(F)F)n4)c3)s2)C1 (centres unmarked) [Example 134] | ≥ 7.00
OCCN(CCO)c1ncc(-c2cccc(Nc3nccc(C(F)(F)F)n3)c2)s1 [Example 3] | ≥ 7.00
FC(F)(F)c1ccnc(Nc2cccc(-c3cnc(NCCc4cccs4)s3)c2)n1 [Example 40] | 6.00 to 7.00
OCCC1CCCN(c2ncc(-c3cccc(Nc4nccc(C(F)(F)F)n4)c3)s2)C1 (centres unmarked) [Example 142] | ≥ 7.00
FC(F)(F)c1ccnc(Nc2cccc(-c3cnc(NCc4cccc(N5CCCCC5)c4)s3)c2)n1 [Example 57] | 5.00 to 6.00
COCCNc1ncc(-c2cccc(Nc3nccc(C(F)(F)F)n3)c2)s1 [Example 5] | ≥ 7.00
Cc1cc(Nc2nccc(C#N)n2)cc(-c2cnc(N3CCCNC(=O)C3)s2)c1 [Example 204] | ≥ 7.00
FC1CCN(c2ncc(-c3cccc(Nc4nccc(C(F)(F)F)n4)c3)s2)CC1 [Example 140] | 6.00 to 7.00
CC(C)(CO)CNc1ncc(-c2cccc(Nc3nccc(C(F)(F)F)n3)c2)s1 [Example 16] | ≥ 7.00
OCCC1CCN(c2ncc(-c3cccc(Nc4nccc(C(F)(F)F)n4)c3)s2)CC1 [Example 141] | ≥ 7.00
Cc1cc(Nc2nccc(C(F)(F)F)n2)cc(-c2cnc(N3CCOC3=O)s2)c1 [Example 180] | ≥ 7.00
NC1CCN(c2ncc(-c3cccc(Nc4nccc(C(F)(F)F)n4)c3)s2)CC1 [Example 143] | ≥ 7.00
Cc1cc(Nc2nccc(SC(C)C)n2)cc(-c2cnc(N3CCCNC(=O)C3)s2)c1 [Example 219] | ≥ 7.00
Cc1cc(Nc2nccc(C(F)(F)F)n2)cc(-c2cnc(NCC(O)C(F)F)s2)c1 (centres unmarked) [Example 95] | ≥ 7.00

Now from value to compound:

pIC50 | Structure (SMILES)
≥ 7.00 | Cc1cc(Nc2nccc(C3CC3)n2)cc(-c2cnc(N3CCCNC(=O)C3)s2)c1 [Example 198, 4-(5-{3-[(4-cyclopropylpyrimidin-2-yl)amino]-5-methyphenyl}-1,3-thiazol-2-yl)-1,4-diazepan-2-one]
6.00 to 7.00 | O=C(COC1CCN(c2ncc(-c3cccc(Nc4nccc(C(F)(F)F)n4)c3)s2)CC1)NC1CC1 [Example 136]
6.00 to 7.00 | Fc1c(CNc2ncc(-c3cccc(Nc4nccc(C(F)(F)F)n4)c3)s2)cccc1C(F)(F)F [Example 64]
≥ 7.00 | CC(Cc1cnccn1)Nc1ncc(-c2cccc(Nc3nccc(C(F)(F)F)n3)c2)s1 (centres unmarked) [Example 56]
≥ 7.00 | CN(Cc1ccccn1)c1ncc(-c2cccc(Nc3nccc(C(F)(F)F)n3)c2)s1 [Example 33]
≥ 7.00 | Cc1cc(Nc2nccc(C(C)C)n2)cc(-c2cnc(N3CCCNC(=O)C3)s2)c1 [Example 206]
≥ 7.00 | Cc1cc(Nc2nccc(C(F)(F)F)n2)cc(-c2cnc(NCCc3ncn[nH]3)s2)c1 [Example 106]
≥ 7.00 | CCC(O)CNc1ncc(-c2cccc(Nc3nccc(C(F)(F)F)n3)c2)s1 (centres unmarked) [Example 9]
≥ 7.00 | OC1COCC1Nc1ncc(-c2cccc(Nc3nccc(C(F)(F)F)n3)c2)s1 (centres unmarked) [Example 12]
≥ 7.00 | CC1(O)CN(c2ncc(-c3cccc(Nc4nccc(C(F)(F)F)n4)c3)s2)C1 [Example 154]
≥ 7.00 | OCCNc1ncc(-c2cccc(Nc3nccc(C(F)(F)F)n3)c2)s1 [Example 2]
≥ 7.00 | Cc1cc(Nc2nccc(C(F)(F)F)n2)cc(-c2cnc(N3CCCNC(=O)C3)s2)c1 [Example 226, 4-[5-(3-methyl-5-{[4-(trifluoromethyl)pyrimidin-2-yl]amino}phenyl)-1,3-thiazol-2-yl]-1,4-diazepan-2-one]
≥ 7.00 | Cc1cc(Nc2nccc(O[C@@H]3CCNC3)n2)cc(-c2cnc(N3CCCNC(=O)C3)s2)c1 [Example 212, 4-{5-[3-methyl-5-({4-[(3R)-pyrrolidin-3-yloxy]pyrimidin-2-yl}amino)phenyl]-1,3-thiazol-2-yl}-1,4-diazepan-2-one]
≥ 7.00 | Cc1cc(Nc2nccc(C(F)(F)F)n2)cc(-c2cnc(NCc3cccnc3)s2)c1 [Example 85]
